{
  "source": "ChEMBL document CHEMBL1201862",
  "about": "“PubChem BioAssay data set” (2004)",
  "assay_in_all_cases": "DTP human tumour cell line panel, 48 h",
  "key": {"HOP-62": {"system": "HOP-62"}, "HT-29": {"system": "HT-29"}, "OVCAR-8": {"system": "OVCAR-8"}, "BT-549": {"system": "BT-549"}, "SN12C": {"system": "SN12C"}, "CAKI-1": {"system": "CAKI-1"}, "A498": {"system": "A498"}, "MDA-N": {"system": "MDA-N"}, "IGROV-1": {"system": "IGROV-1"}, "K562": {"system": "K562"}, "T47D": {"system": "T47D"}, "EKVX": {"system": "EKVX"}, "OVCAR-5": {"system": "OVCAR-5"}, "SK-MEL-28": {"system": "SK-MEL-28"}, "SR": {"system": "SR"}, "SNB-78": {"system": "SNB-78"}, "HCC 2998": {"system": "HCC 2998"}, "KM12": {"system": "KM12"}, "RPMI-8226": {"system": "RPMI-8226"}, "Hs-578T": {"system": "Hs-578T"}, "MOLT-4": {"system": "MOLT-4"}, "M19-MEL": {"system": "M19-MEL"}, "SK-OV-3": {"system": "SK-OV-3"}, "MDA-MB-231": {"system": "MDA-MB-231"}, "LOX IMVI": {"system": "LOX IMVI"}, "SW-620": {"system": "SW-620"}, "RXF 393": {"system": "RXF 393"}, "SF-295": {"system": "SF-295"}, "NCI/ADR-RES": {"system": "NCI/ADR-RES"}, "MDA-MB-435": {"system": "MDA-MB-435"}, "RXF 631": {"system": "RXF 631"}, "NCI-H460": {"system": "NCI-H460"}, "ACHN": {"system": "ACHN"}, "M14": {"system": "M14"}, "SK-MEL-5": {"system": "SK-MEL-5"}, "SNB-75": {"system": "SNB-75"}, "SK-MEL-2": {"system": "SK-MEL-2"}, "UACC-257": {"system": "UACC-257"}, "SNB-19": {"system": "SNB-19"}, "HOP-92": {"system": "HOP-92"}, "Malme-3M": {"system": "Malme-3M"}, "UACC-62": {"system": "UACC-62"}, "XF498": {"system": "XF498"}, "HCT-116": {"system": "HCT-116"}, "786-0": {"system": "786-0"}, "OVCAR-3": {"system": "OVCAR-3"}, "COLO 205": {"system": "COLO 205"}, "KM-20L2": {"system": "KM-20L2"}, "PC-3": {"system": "PC-3"}, "OVCAR-4": {"system": "OVCAR-4"}, "DU-145": {"system": "DU-145"}, "MCF7": {"system": "MCF7"}, "CCRF-CEM": {"system": "CCRF-CEM"}, "NCI-H522": {"system": "NCI-H522"}, "HOP-18": {"system": "HOP-18"}, "NCI-H226": {"system": "NCI-H226"}, "DMS-114": {"system": "DMS-114"}, "SF-539": {"system": "SF-539"}, "A549": {"system": "A549"}, "SF-268": {"system": "SF-268"}, "HL-60": {"system": "HL-60"}, "UO-31": {"system": "UO-31"}, "NCI-H23": {"system": "NCI-H23"}},
  "note": "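Method: 48-hour compound exposure of cells in 96-well plates, five concentrations, linear interpolation of endpoints. GI50 is the concentration that inhibits growth by half.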 Calls of active or inactive are those of the source. Cut-off read from the data, not from the text of the source: active = GI50 up to about 1.1 µM and inactive = higher.",
  "data": [
    {"smiles": "Cc1c[nH]c2c(O)cc3c(c12)[C@H](CCl)CN3C(=O)c1cc2cc(NC(=O)Nc3ccc4[nH]c(C(=O)N5C[C@@H](CCl)c6c5cc(O)c5[nH]cc(C)c65)cc4c3)ccc2[nH]1", "note": "[BIZELESIN]", "values": [
      {"measurement": "GI50", "setting": "HOP-62", "value": "1.05 µM (active)"},
      {"measurement": "GI50", "setting": "HT-29", "value": "27.1 µM (inactive)"},
      {"measurement": "GI50", "setting": "OVCAR-8", "value": "2.62 µM (inactive)"},
      {"measurement": "GI50", "setting": "BT-549", "value": "24.9 µM (inactive)"},
      {"measurement": "GI50", "setting": "SN12C", "value": "0.378 µM (active)"},
      {"measurement": "GI50", "setting": "CAKI-1", "value": "9.16 µM (inactive)"},
      {"measurement": "GI50", "setting": "A498", "value": "0.904 µM (active)"},
      {"measurement": "GI50", "setting": "MDA-N", "value": "22.2 µM (inactive)"},
      {"measurement": "GI50", "setting": "IGROV-1", "value": "19.4 µM (inactive)"},
      {"measurement": "GI50", "setting": "K562", "value": "23.9 µM (inactive)"},
      {"measurement": "GI50", "setting": "T47D", "value": "< 0.001 µM (active)"},
      {"measurement": "GI50", "setting": "EKVX", "value": "> 100 µM (inactive)"},
      {"measurement": "GI50", "setting": "OVCAR-5", "value": "0.00136 µM (active)"},
      {"measurement": "GI50", "setting": "SK-MEL-28", "value": "14.6 µM (inactive)"},
      {"measurement": "GI50", "setting": "SR", "value": "0.0832 µM (active)"},
      {"measurement": "GI50", "setting": "SNB-78", "value": "< 0.001 µM (active)"},
      {"measurement": "GI50", "setting": "HCC 2998", "value": "0.00109 µM (active)"},
      {"measurement": "GI50", "setting": "KM12", "value": "12.1 µM (inactive)"},
      {"measurement": "GI50", "setting": "RPMI-8226", "value": "0.00131 µM (active)"},
      {"measurement": "GI50", "setting": "Hs-578T", "value": "> 100 µM (inactive)"},
      {"measurement": "GI50", "setting": "MOLT-4", "value": "0.418 µM (active)"},
      {"measurement": "GI50", "setting": "M19-MEL", "value": "< 0.001 µM (active)"},
      {"measurement": "GI50", "setting": "SK-OV-3", "value": "0.141 µM (active)"},
      {"measurement": "GI50", "setting": "MDA-MB-231", "value": "26.5 µM (inactive)"},
      {"measurement": "GI50", "setting": "LOX IMVI", "value": "3.6 µM (inactive)"},
      {"measurement": "GI50", "setting": "SW-620", "value": "17.4 µM (inactive)"},
      {"measurement": "GI50", "setting": "RXF 393", "value": "> 100 µM (inactive)"},
      {"measurement": "GI50", "setting": "SF-295", "value": "6.35 µM (inactive)"},
      {"measurement": "GI50", "setting": "NCI/ADR-RES", "value": "0.071 µM (active)"},
      {"measurement": "GI50", "setting": "MDA-MB-435", "value": "0.113 µM (active)"},
      {"measurement": "GI50", "setting": "RXF 631", "value": "< 0.001 µM (active)"},
      {"measurement": "GI50", "setting": "NCI-H460", "value": "< 0.001 µM (active)"},
      {"measurement": "GI50", "setting": "ACHN", "value": "0.139 µM (active)"},
      {"measurement": "GI50", "setting": "M14", "value": "0.631 µM (active)"},
      {"measurement": "GI50", "setting": "SK-MEL-5", "value": "12.5 µM (inactive)"},
      {"measurement": "GI50", "setting": "SNB-75", "value": "1.09 µM (active)"},
      {"measurement": "GI50", "setting": "SK-MEL-2", "value": "34.4 µM (inactive)"},
      {"measurement": "GI50", "setting": "UACC-257", "value": "14.6 µM (inactive)"},
      {"measurement": "GI50", "setting": "SNB-19", "value": "28.5 µM (inactive)"},
      {"measurement": "GI50", "setting": "HOP-92", "value": "48.5 µM (inactive)"},
      {"measurement": "GI50", "setting": "Malme-3M", "value": "13.7 µM (inactive)"},
      {"measurement": "GI50", "setting": "UACC-62", "value": "0.701 µM (active)"},
      {"measurement": "GI50", "setting": "XF498", "value": "< 0.001 µM (active)"},
      {"measurement": "GI50", "setting": "HCT-116", "value": "2.6 µM (inactive)"},
      {"measurement": "GI50", "setting": "786-0", "value": "4.9 µM (inactive)"},
      {"measurement": "GI50", "setting": "OVCAR-3", "value": "18.6 µM (inactive)"},
      {"measurement": "GI50", "setting": "COLO 205", "value": "8.91 µM (inactive)"},
      {"measurement": "GI50", "setting": "KM-20L2", "value": "< 0.001 µM (active)"},
      {"measurement": "GI50", "setting": "PC-3", "value": "33.9 µM (inactive)"},
      {"measurement": "GI50", "setting": "OVCAR-4", "value": "17.3 µM (inactive)"},
      {"measurement": "GI50", "setting": "DU-145", "value": "3.65 µM (inactive)"},
      {"measurement": "GI50", "setting": "MCF7", "value": "0.578 µM (active)"},
      {"measurement": "GI50", "setting": "CCRF-CEM", "value": "0.274 µM (active)"},
      {"measurement": "GI50", "setting": "NCI-H522", "value": "< 0.001 µM (active)"},
      {"measurement": "GI50", "setting": "HOP-18", "value": "< 0.001 µM (active)"},
      {"measurement": "GI50", "setting": "NCI-H226", "value": "0.183 µM (active)"},
      {"measurement": "GI50", "setting": "DMS-114", "value": "< 0.001 µM (active)"},
      {"measurement": "GI50", "setting": "SF-539", "value": "1.24 µM (inactive)"},
      {"measurement": "GI50", "setting": "A549", "value": "11 µM (inactive)"},
      {"measurement": "GI50", "setting": "SF-268", "value": "2.82 µM (inactive)"},
      {"measurement": "GI50", "setting": "HL-60", "value": "0.00288 µM (active)"},
      {"measurement": "GI50", "setting": "UO-31", "value": "< 0.001 µM (active)"},
      {"measurement": "GI50", "setting": "NCI-H23", "value": "1.9 µM (inactive)"}
    ]}
  ]
}
